The values below come from publication PMC11532403 (Signal Transduction and Targeted Therapy, 2024).

The test system of one series is preclinical animals. The series is described as follows: Preclinical animal long term (repeat-dose) toxicity tests, species not stated. The format is in vivo.
Series [1] is described as follows: Excretion in rats (feces, urine, bile). It is filed as in vivo. Here is the method: The total fecal and urinary excretion of prodrug and metabolite was 62.8% of the administered dose. The amount of prodrug and metabolite in bile from 0 to 48 h in bile duct-intubated rats was 5.22% of the administered dose, of which 0.656% was prodrug and 4.57% was metabolite.

The target in another series is T1, CYP2D6 (Homo sapiens, UniProt P10635).
T1 construct: substrates of different CYP450 enzymes in mixed human liver microsomes; from tissue; host or cells: mixed human liver microsomes
T1 sequence (P10635 whole entry): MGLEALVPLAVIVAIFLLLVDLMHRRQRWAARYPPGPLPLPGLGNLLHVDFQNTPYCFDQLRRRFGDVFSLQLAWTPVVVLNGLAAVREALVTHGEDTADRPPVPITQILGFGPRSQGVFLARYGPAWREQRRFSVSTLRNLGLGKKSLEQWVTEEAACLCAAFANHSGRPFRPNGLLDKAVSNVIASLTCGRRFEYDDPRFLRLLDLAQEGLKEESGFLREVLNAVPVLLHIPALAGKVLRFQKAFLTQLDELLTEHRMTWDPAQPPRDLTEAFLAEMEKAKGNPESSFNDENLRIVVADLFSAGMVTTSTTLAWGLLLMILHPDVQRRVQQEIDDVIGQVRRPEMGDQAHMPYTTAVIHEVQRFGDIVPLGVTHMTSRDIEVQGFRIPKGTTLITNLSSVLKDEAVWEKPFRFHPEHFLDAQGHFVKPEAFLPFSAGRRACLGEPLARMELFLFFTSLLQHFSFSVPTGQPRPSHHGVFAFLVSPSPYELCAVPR
The series is described as follows: CYP inhibition in human liver microsomes. The conditions noted are these: 0.5-25 μM. It is filed as in vitro ADME.

The IC50 is the concentration that gives 50% inhibition. Lower therefore signals inhibition by little substance.

For `COc1ccc(CN2C3CC2CN(c2ccc(-c4cc(N5CC(C)(O)C5)cn5ncc(C#N)c45)cn2)C3)cn1` [SY-5007, 6-(3-hydroxy-3-methylazetidin-1-yl)-4-(6-(6-((6-methoxypyridin-3-yl)methyl)-3,6-diazabicyclo[3.1.1]heptan-3-yl)pyridin-3-yl)pyrazolo[1,5-a]pyridine-3-carbonitrile], the “Liver and gallbladder toxicity” value in the series with preclinical animals (preclinical animal long term toxicity tests) was “? Provision is made for the toxicity to the liver and gallbladder found in preclinical animal long term toxicity tests, and for adverse events associated with drugs with a similar mechanism of action to this product”. The “Reproductive toxicity (reproductive tissue weight)” value in the series with preclinical animals (preclinical long toxicity experiments) is listed as “? Preclinical long toxicity experiments observed a weight reduction in reproductive tissue, so relevant regulations are made”. In series [1] (20 mg/kg gavage), the “Fecal excretion, prodrug (parent)” value is 55.4% and the “Urinary excretion, prodrug (parent)” value worked out at 0.801%. In addition, in series [1] (bile duct-intubated rats), the “Bile excretion, prodrug (parent)” value is 0.656%. Moreover, the IC50 on CYP2D6 is more than 25 µM.
